Several values for one entry are separate records, joined by “and”; a condition that tells them apart may be missing. Identical values can stand only once.
Experiment: molar heat capacity at constant pressure
Details: 101.33 kPa, Crystal

OC[C@@H](O)[C@H](O)[C@@H](O)CO [xylitol]
Details	molar heat capacity at constant pressure
1 K, relaxation calorimetry	0.0008271 J/K/mol
1.922 K, relaxation calorimetry	0.005594 J/K/mol
2 K, relaxation calorimetry	0.006331 J/K/mol
2.139 K, relaxation calorimetry	0.007737 J/K/mol
2.374 K, relaxation calorimetry	0.01068 J/K/mol
2.635 K, relaxation calorimetry	0.0145 J/K/mol
2.93 K, relaxation calorimetry	0.02028 J/K/mol
3 K, relaxation calorimetry	0.02164 J/K/mol
3.25 K, relaxation calorimetry	0.02792 J/K/mol
3.603 K, relaxation calorimetry	0.03808 J/K/mol
4 K, relaxation calorimetry	0.05265 J/K/mol and 0.05269 J/K/mol
4.437 K, relaxation calorimetry	0.07193 J/K/mol
4.924 K, relaxation calorimetry	0.1019 J/K/mol
5 K, relaxation calorimetry	0.1065 J/K/mol
5.466 K, relaxation calorimetry	0.1404 J/K/mol
6 K, relaxation calorimetry	0.191 J/K/mol
6.063 K, relaxation calorimetry	0.1974 J/K/mol
6.726 K, relaxation calorimetry	0.2771 J/K/mol
7 K, relaxation calorimetry	0.3152 J/K/mol
7.46 K, relaxation calorimetry	0.3882 J/K/mol
8 K, relaxation calorimetry	0.4898 J/K/mol
8.276 K, relaxation calorimetry	0.5472 J/K/mol
9 K, relaxation calorimetry	0.7186 J/K/mol
9.181 K, relaxation calorimetry	0.7649 J/K/mol
10 K, relaxation calorimetry	1.004 J/K/mol
10.2 K, relaxation calorimetry	1.063 J/K/mol
11.29 K, relaxation calorimetry	1.456 J/K/mol
12.52 K, relaxation calorimetry	1.978 J/K/mol
13.9 K, relaxation calorimetry	2.652 J/K/mol
15 K, relaxation calorimetry	3.243 J/K/mol
15.43 K, relaxation calorimetry	3.486 J/K/mol
17.11 K, relaxation calorimetry	4.536 J/K/mol
19 K, relaxation calorimetry	5.817 J/K/mol
20 K, relaxation calorimetry	6.537 J/K/mol
21.08 K, relaxation calorimetry	7.334 J/K/mol
23.4 K, relaxation calorimetry	9.137 J/K/mol
25 K, relaxation calorimetry	10.45 J/K/mol
25.98 K, relaxation calorimetry	11.24 J/K/mol
28.85 K, relaxation calorimetry	13.71 J/K/mol
30 K, relaxation calorimetry	14.71 J/K/mol
32.02 K, relaxation calorimetry	16.53 J/K/mol
35 K, relaxation calorimetry	19.23 J/K/mol
35.54 K, relaxation calorimetry	19.78 J/K/mol
39.45 K, relaxation calorimetry	23.43 J/K/mol
40 K, relaxation calorimetry	23.95 J/K/mol
43.77 K, relaxation calorimetry	27.59 J/K/mol
45 K, relaxation calorimetry	28.76 J/K/mol
48.58 K, relaxation calorimetry	32.08 J/K/mol
50 K, relaxation calorimetry	33.53 J/K/mol
53.91 K, relaxation calorimetry	37.13 J/K/mol
55 K, relaxation calorimetry	38.17 J/K/mol
59.82 K, relaxation calorimetry	42.74 J/K/mol
60 K, relaxation calorimetry	42.76 J/K/mol
65 K, relaxation calorimetry	47.51 J/K/mol
66.39 K, relaxation calorimetry	48.78 J/K/mol
70 K, relaxation calorimetry	52.03 J/K/mol
73.7 K, relaxation calorimetry	55.27 J/K/mol
75 K, relaxation calorimetry	56.38 J/K/mol
80 K, relaxation calorimetry	60.61 J/K/mol
81.8 K, relaxation calorimetry	62.47 J/K/mol
85 K, relaxation calorimetry	64.74 J/K/mol
90 K, relaxation calorimetry	68.78 J/K/mol
90.79 K, relaxation calorimetry	69.45 J/K/mol
95 K, relaxation calorimetry	72.72 J/K/mol
100 K, relaxation calorimetry	76.57 J/K/mol
100.73 K, relaxation calorimetry	76.61 J/K/mol
110 K, relaxation calorimetry	84.01 J/K/mol
110.86 K, relaxation calorimetry	84.59 J/K/mol
120 K, relaxation calorimetry	91.15 J/K/mol
120.92 K, relaxation calorimetry	91.94 J/K/mol
130 K, relaxation calorimetry	98.03 J/K/mol
130.99 K, relaxation calorimetry	98.86 J/K/mol
140 K, relaxation calorimetry	104.68 J/K/mol
141.06 K, relaxation calorimetry	105.29 J/K/mol
150 K, relaxation calorimetry	111.17 J/K/mol
151.18 K, relaxation calorimetry	112.01 J/K/mol
160 K, relaxation calorimetry	117.52 J/K/mol
161.27 K, relaxation calorimetry	118.23 J/K/mol
170 K, relaxation calorimetry	123.79 J/K/mol
171.37 K, relaxation calorimetry	124.62 J/K/mol
180 K, relaxation calorimetry	130 J/K/mol
181.44 K, relaxation calorimetry	131.13 J/K/mol
188.15 K, Small sample (50 mg) DSC	129.73 J/K/mol
189.15 K, Small sample (50 mg) DSC	130.13 J/K/mol
190 K, relaxation calorimetry	136.19 J/K/mol
190.15 K, Small sample (50 mg) DSC	131.3 J/K/mol
191.15 K, Small sample (50 mg) DSC	132.22 J/K/mol
191.51 K, relaxation calorimetry	137.32 J/K/mol
192.15 K, Small sample (50 mg) DSC	132.97 J/K/mol
193.15 K, Small sample (50 mg) DSC	133.63 J/K/mol
194.15 K, Small sample (50 mg) DSC	134.85 J/K/mol
195.15 K, Small sample (50 mg) DSC	136.05 J/K/mol
196.15 K, Small sample (50 mg) DSC	137.13 J/K/mol
197.15 K, Small sample (50 mg) DSC	137.99 J/K/mol
198.15 K, Small sample (50 mg) DSC	138.87 J/K/mol
199.15 K, Small sample (50 mg) DSC	139.73 J/K/mol
200 K, relaxation calorimetry	142.38 J/K/mol
200.15 K, Small sample (50 mg) DSC	140.65 J/K/mol
201.15 K, Small sample (50 mg) DSC	141.4 J/K/mol
201.63 K, relaxation calorimetry	143.25 J/K/mol
202.15 K, Small sample (50 mg) DSC	142.18 J/K/mol
203.15 K, Small sample (50 mg) DSC	143.08 J/K/mol
204.15 K, Small sample (50 mg) DSC	143.76 J/K/mol
205.15 K, Small sample (50 mg) DSC	144.29 J/K/mol
206.15 K, Small sample (50 mg) DSC	145.08 J/K/mol
207.15 K, Small sample (50 mg) DSC	145.87 J/K/mol
208.15 K, Small sample (50 mg) DSC	146.4 J/K/mol
209.15 K, Small sample (50 mg) DSC	147.11 J/K/mol
210 K, relaxation calorimetry	148.6 J/K/mol
210.15 K, Small sample (50 mg) DSC	147.83 J/K/mol
211.15 K, Small sample (50 mg) DSC	148.54 J/K/mol
211.72 K, relaxation calorimetry	149.26 J/K/mol
212.15 K, Small sample (50 mg) DSC	149.22 J/K/mol
213.15 K, Small sample (50 mg) DSC	149.76 J/K/mol
214.15 K, Small sample (50 mg) DSC	150.56 J/K/mol
215.15 K, Small sample (50 mg) DSC	151.28 J/K/mol
216.15 K, Small sample (50 mg) DSC	152.02 J/K/mol
217.15 K, Small sample (50 mg) DSC	152.63 J/K/mol
218.15 K, Small sample (50 mg) DSC	153.29 J/K/mol
219.15 K, Small sample (50 mg) DSC	154.13 J/K/mol
220 K, relaxation calorimetry	154.86 J/K/mol
220.15 K, Small sample (50 mg) DSC	154.86 J/K/mol
221.15 K, Small sample (50 mg) DSC	155.65 J/K/mol
221.81 K, relaxation calorimetry	156.12 J/K/mol
222.15 K, Small sample (50 mg) DSC	156.3 J/K/mol
223.15 K, Small sample (50 mg) DSC	157.01 J/K/mol
224.15 K, Small sample (50 mg) DSC	157.66 J/K/mol
225.15 K, Small sample (50 mg) DSC	158.24 J/K/mol
226.15 K, Small sample (50 mg) DSC	158.84 J/K/mol
227.15 K, Small sample (50 mg) DSC	159.41 J/K/mol
228.15 K, Small sample (50 mg) DSC	160.16 J/K/mol
229.15 K, Small sample (50 mg) DSC	160.62 J/K/mol
230 K, relaxation calorimetry	161.19 J/K/mol
230.15 K, Small sample (50 mg) DSC	161.2 J/K/mol
231.15 K, Small sample (50 mg) DSC	162.12 J/K/mol
231.89 K, relaxation calorimetry	162.24 J/K/mol
232.15 K, Small sample (50 mg) DSC	162.73 J/K/mol
233.15 K, Small sample (50 mg) DSC	163.22 J/K/mol
234.15 K, Small sample (50 mg) DSC	164.01 J/K/mol
235.15 K, Small sample (50 mg) DSC	164.81 J/K/mol
236.15 K, Small sample (50 mg) DSC	165.55 J/K/mol
237.15 K, Small sample (50 mg) DSC	166.14 J/K/mol
238.15 K, Small sample (50 mg) DSC	166.88 J/K/mol
239.15 K, Small sample (50 mg) DSC	167.65 J/K/mol
240 K, relaxation calorimetry	167.6 J/K/mol
240.15 K, Small sample (50 mg) DSC	168.23 J/K/mol
241.15 K, Small sample (50 mg) DSC	168.92 J/K/mol
241.89 K, relaxation calorimetry	168.66 J/K/mol
242.15 K, Small sample (50 mg) DSC	169.52 J/K/mol
243.15 K, Small sample (50 mg) DSC	170.22 J/K/mol
244.15 K, Small sample (50 mg) DSC	170.79 J/K/mol
245.15 K, Small sample (50 mg) DSC	171.35 J/K/mol
246.15 K, Small sample (50 mg) DSC	172.07 J/K/mol
247.15 K, Small sample (50 mg) DSC	172.62 J/K/mol
248.15 K, Small sample (50 mg) DSC	173.32 J/K/mol
249.15 K, Small sample (50 mg) DSC	173.97 J/K/mol
250 K, relaxation calorimetry	174.1 J/K/mol
250.15 K, Small sample (50 mg) DSC	174.75 J/K/mol
251.15 K, Small sample (50 mg) DSC	175.38 J/K/mol
252.05 K, relaxation calorimetry	175.66 J/K/mol
252.15 K, Small sample (50 mg) DSC	176.09 J/K/mol
253.15 K, Small sample (50 mg) DSC	176.77 J/K/mol
254.15 K, Small sample (50 mg) DSC	177.72 J/K/mol
255.15 K, Small sample (50 mg) DSC	178.41 J/K/mol
256.15 K, Small sample (50 mg) DSC	179.25 J/K/mol
257.15 K, Small sample (50 mg) DSC	180.21 J/K/mol
258.15 K, Small sample (50 mg) DSC	180.68 J/K/mol
259.15 K, Small sample (50 mg) DSC	181.27 J/K/mol
260 K, relaxation calorimetry	180.7 J/K/mol
260.15 K, Small sample (50 mg) DSC	182.15 J/K/mol
